# How the values were obtained:
# Assay type in all cases: in vivo, human
# [1] = tested on: MCP-1; experiment: plasma MCP-1 in phase III BMT patients; settings: day 60 after BMT
# From the text: (§1) FIGS. 11A through 11D. IL-6 inhibition with tocilizumab (TCZ) attenuates human CMV (HCMV) viremia after clinical BMT. FIG. 11A. Kinetics of HCMV viremia over time for placebo control versus TCZ groups. FIG. 11B (left). The number of PCR positive events of HCMV viremia plotted in (A) and depicted in the two patient cohorts. FIG. 11B (right). Distribution of HCMV reactivation in the patient cohorts receiving volunteer unrelated donor (VUD) grafts. FIG. 11C. Plasma concentration of MCP-1 at day + 60 after bone marrow transplantation (BMT) in patients was quantified and shown in relation to HCMV reactivation (≥ 600 copies/µL) and TCZ treatment. FIG. 11D. Pair-wise comparison of MCP-1 from day + 30 to + 60 in patients without (left) or with (right) significant CMV reactivation (≥ 600 copies/µL) in the placebo group. *P < 0.05; ****P < 0.0001.
# Flow cytometry. Antibody stained single-cell suspensions were analyzed on an LSR Fortessa™ cytometer in Australia or a FACSymphony™ A3 in Seattle USA (Becton Dickinson) and data are processed using FlowJo version 10 (Tree Star). Cytokines levels in the plasma were determined with the BD Cytometric Bead Array system (BD Biosciences).
# Furthermore, high level HCMV reactivation (≥ 600 copies/ul) was associated with a greater increase in MCP-1 between day + 30 and + 60 than seen in patients with low level reactivation (FIG. 11D). […]
# [2] = tested on: HCMV; experiment: phase III randomized placebo-controlled trial: HCMV viremia and cumulative incidence of HCMV reactivation after allogenic BMT
# From the text: FIGS. 6A through 6D. IL-6 inhibition with tocilizumab reduces human CMV (HCMV) reactivation in clinical allogenic bone marrow transplantation (BMT) recipients. Participants of a phase 3 clinical trial who were enrolled at Royal Brisbane and Women’s Hospital and were at-risk of HCMV reactivation were included for analysis (n = 85). These patients were either seropositive for HCMV (R^+) or received grafts from seropositive donors (D^+). FIGS. 6A to 6C. Cumulative incidence of any detectable HCMV reactivation after BMT in at-risk patients. Solid lines represent the tocilizumab (TCZ) group and broken lines represent the placebo control group. FIG. 6A. HCMV reactivation in the total cohort (left) or the subset of patients with grade 0 - I acute graft versus host disease (aGVHD) (right). FIG. 6B. HCMV reactivation in all recipients of volunteer unrelated donor (VUD) grafts (left) or the subset of patients with grade 0 - I aGVHD (right). FIG. 6C. HCMV reactivation in all recipients of matched sibling donor (MSD) grafts (left) or those with grade 0 - I aGVHD (right). FIG. 6D. Distribution of HCMV serostatus (D^+R^-, D^+R^+ and D^-R^+) in recipients of MSD or VUD grafts.
# as §1
# (§2) Patients. Patients were enrolled in reported phase I/II (ACTRN12612000726853) or phase III (ACTRN12614000266662) clinical trials. The studies were approved by the Royal Brisbane and Womens Hospital institutional human ethics committee and all patients provided signed informed consent.
# HCMV monitoring. CMV viral load was monitored using the COBAS® Amplicor CMV Monitor test (Roche Diagnostics, Basel, Switzerland) as previously described (Tey SK, Kennedy GA, Cromer D, Davenport MP, Walker S, Jones LI, et al. Clinical assessment of anti-viral CD8+ T cell immune monitoring using QuantiFERON-CMV® assay to identify high risk allogeneic hematopoietic stem cell transplant patients with CMV infection complications. PloS one. 2013, 8(10), e74744). Cumulative incidence of any detectable HCMV viremia is plotted up to day + 100 after BMT and HCMV is censored at day + 100 of BMT or the time of death if this occurred prior to day 100.
# Statistics. Results are presented as median ± interquartile range and the Mann-Whitney U test was used for comparisons. Wilcoxon test is conducted for pair-wise comparisons. Ordinary least-squares method was used in the linear or semi-log regression analysis. A two-sided P value of 0.05 was considered statistically significant. […]
# [3] = tested on: HCMV specific T cells; experiment: HCMV-specific CD8+ T cells and T cell memory phenotype in PBMC at day +60 after BMT (flow cytometry)
# Experimental: (§3) FIGS. 7A through 7G. […] Patients included for the evaluation of human CMV (HCMV) reactivation (as in FIG. 6) were analyzed for HCMV specific T cells and other immune subsets. A total of 50 PBMC samples at day + 60 after bone marrow transplantation (BMT) were identified based on availability of HCMV tetramers and peptides. FIG. 7A. Frequency of HCMV tetramer positive CD8^+ T cells in patients with or without HCMV reactivation. FIG. 7B. Frequency of cytokine (IFNy^+TNF^+) producing CD8^+ T cells following HCMV peptide stimulation in patients with or without HCMV reactivation. FIG. 7C. Frequency of HCMV tetramer positive CD8^+ T cells in patients receiving tocilizumab (TCZ) (n = 21) or placebo control (Ctrl) (n = 29). FIG. 7D. Frequency of cytokine (IFNv^+TNF^+) producing CD8^+ T cells in patients receiving TCZ or placebo. FIG. 7E. Memory phenotype for CD4^+ T cells in patients receiving TCZ or placebo. FIG. 7F. Memory phenotype for CD8^+ T cells in patients receiving TCZ or placebo. FIG. 7G. Proportions of naive B cells, mature B cells and plasmablasts in a subset of the above cohort (n = 19 for control and 17 for TCZ groups respectively). *P < 0.05.
# Next the effect of IL-6 inhibition was investigated on donor T and B cell responses after BMT. Firstly, HCMV-specific CD8^+ T cells defined by HCMV-tetramer staining or cytokine production (IFNγ and/or TNF) were analyzed following HCMV peptide stimulation in conjunction with markers of T cell memory (CD45RA and CCR7). The inventors identified 50 PBMC samples at day + 60 after BMT based on availability of HCMV tetramers (and/or peptides). […] Within the subset of patients with HCMV reactivation, HCMV tetramer^+ cells were present at a lower frequency in patients with higher HCMV viremia (FIG. 7A right).
# [4] = tested on: HCMV; experiment: phase I/II clinical trial of tocilizumab added to standard GVHD prophylaxis: HCMV reactivation vs historical cohort; settings: at risk BMT recipients; compared to non-randomized similarly transplanted historical cohort
# From the text: FIGS. 9A through 9C. IL-6 inhibition with tocilizumab is associated with low rates of significant CMV reactivation relative to historical controls. Human CMV (HCMV) viremia over time after bone marrow transplantation (BMT) in patients from (FIG. 9A) a phase I/II clinical trial of the addition of tocilizumab to standard graft versus host disease (GVHD) prophylaxis (left) or (FIG. 9B) a contemporaneous historical control cohort (right). FIG. 9C. Depiction of CMV reactivation > 600 versus < 600 copies/µL of plasma in the two patient cohorts.
# as §2
# HCMV monitoring. CMV viral load was monitored using the COBAS® Amplicor CMV Monitor test (Roche Diagnostics, Basel, Switzerland) as previously described (Tey SK, Kennedy GA, Cromer D, Davenport MP, Walker S, Jones LI, et al. Clinical assessment of anti-viral CD8+ T cell immune monitoring using QuantiFERON-CMV® assay to identify high risk allogeneic hematopoietic stem cell transplant patients with CMV infection complications. PloS one. 2013, 8(10), e74744). […]
# [5] = tested on: HCMV-specific IgG; experiment: HCMV-specific IgG titers in plasma at day +30 after BMT (chemiluminescence, Diasorin Liaison XL)
# From the text: FIGS. 8A through 8C. IL-6 inhibition with tocilizumab is associated with the maintenance of human CMV (HCMV)-specific IgG. FIGS. 8A to 8C. Quantification of HCMV-specific IgG titers in plasma at day + 30 after bone marrow transplantation (BMT). FIG. 8A. D^-R^+ and D^+R^+ patients are classified into 3 groups based on HCMV reactivation (reactivation before day + 35, reactivation between day + 35 and + 100, no reactivation by day + 100) and respective HCMV-specific IgG titers are shown. FIG. 8B. HCMV-specific IgG in D^-R^+ and D^+R^+ patients are shown for tocilizumab (TCZ) versus placebo control (Ctrl) groups (left). The analysis for the subset of unrelated transplants is shown right. FIG. 8C. Titers of HCMV-specific IgG in D^+R^- patients are shown for TCZ versus placebo control groups. Dotted lines indicate detection limit of the HCMV-IgG assay (5 -180 U/mL).
# Total and HCMV-specific IgG. The concentration of total IgG was determined with Enzyme-linked immunosorbent assay (Invitrogen) as per the manufacturer’s protocol. Quantification of HCMV IgG was conducted by Sullivan Nicolaides Pathology Queensland (Bowen Hills, QLD, Australia) using a chemiluminescence method on the Diasorin Liaison® XL platform. This semiquantitative method allows for a detection range of 5 - 180 Unit/mL.
# Given the lack of effects of IL-6 inhibition on T and B cells, HCMV-specific IgG was quantified after BMT. […]
# [6] = tested on: CD19+ B cells; experiment: B cell subsets and B cell counts in peripheral blood after clinical BMT
# Experimental: as §3
# FIGS. 12A through 12B. The effects of IL-6 inhibition with tocilizumab (TCZ) on B cell recovery following clinical BMT. FIG. 12A. B cell counts in peripheral blood in at-risk patients at day + 30 and + 60 after BMT. FIG. 12B. B cell counts in peripheral blood at day + 60 after bone marrow transplantation (BMT), classified into 4 groups based on the TCZ administration and the presence of acute graft versus host disease (aGVHD).
# Furthermore, there was no difference in the memory phenotypes of CD4^+ and CD8^+ T cells between placebo and TCZ treated patients (FIGS. 7E - 7F). The inventors also analyzed CD19^+ B cells in available samples (n = 19 for Ctrl and n = 17 for TCZ).
substance,measurement,setting,value
tocilizumab,increase of plasma MCP-1 with HCMV reactivation (≥ 600 copies/ul),[1],not observed
same,benefit from treatment by serostatus,[2]; HCMV seropositive patients receiving seronegative grafts (D-R+),maximum benefit
same,HCMV viremia,"[2]; TCZ vs placebo, at-risk patients (n = 85)",a trend towards lower HCMV viremia
same,"HCMV reactivation, TCZ versus placebo",[2]; recipients of matched sibling donor grafts,no difference
same,protection on HCMV reactivation,"[2]; recipients of volunteer unrelated donor (VUD) grafts, independent of acute GVHD",most profound
same,cumulative incidence of HCMV reactivation,"[2]; total cohort, TCZ vs placebo, independent of acute GVHD",a trend towards lower cumulative incidence
same,frequency of cytokine-producing CD8+ T cells,"[3]; day +60 PBMC, HCMV peptide stimulation, TCZ vs placebo",did not have any significant effect
same,frequency of HCMV-tetramer+CD8+ T cells,"[3]; day +60 PBMC, TCZ (n = 21) vs placebo (n = 29)",did not have any significant effect
same,memory phenotypes of CD4+ and CD8+ T cells,[3]; placebo vs TCZ treated patients,no difference
same,rates of significant HCMV reactivation requiring preemptive therapy (> 600 copies/µL),[4],low rates
same,effect on HCMV-IgG titers by graft type,"[5]; day +30 plasma, VUD subset",predominantly observed in recipients of VUD grafts
same,HCMV-IgG in day +30 plasma,"[5]; seropositive recipients (D-R+ and D+R+), TCZ vs placebo",higher
same,absolute numbers of B cells in blood,"[6]; day +30 or +60, presence or absence of TCZ",not different
same,B cell suppression in patients with grade II-IV acute GVHD,[6]; day +60,did appear to mitigate
same,"frequencies of IgD+CD27- naïve B cells, IgD-CD27+ mature B cells or CD38hi plasmablasts","[6]; n = 19 Ctrl, n = 17 TCZ",did not impact

# — US20230151101A1, “METHODS AND COMPOSITIONS TO ENHANCE HUMORAL IMMUNITY TO REDUCE CYTOMEGALOVIRUS INFECTION AND REACTIVATION BY IL-6 INHIBITION” (Fred Hutchinson Cancer Center, priority 2021, published 2023)
